Data published in the supplement of paper PMC6045584.
± gives the standard deviation of the averaged measurements.

Columns and labels:
LAPATINIB = compound: CS(=O)(=O)CCNCc1ccc(-c2ccc3ncnc(Nc4ccc(OCc5cccc(F)c5)c(Cl)c4)c3c2)o1 [LAPATINIB]; assay: surviving fraction relative to DMSO-only wells; higher = less growth inhibition; settings: exposure time: 5 days
Outline: (§1)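 Log-phase tumour cell lines, 250–500 cells per well in 384-well plates, received inhibitors at 0.5, 1, 5, 10, 50, 100, 500 and 1000 nM continuously for five days, starting 24 hours after seeding. Viability was quantified with CellTiter-Glo luminescence and normalised to the median of DMSO-only wells to give surviving fraction. Three screens were run per line, and a line stayed in only with replicate Pearson r >0.7 and median Z' >0.3.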

DECITABINE = compound: Nc1ncn([C@H]2C[C@H](O)[C@@H](CO)O2)c(=O)n1 [DECITABINE]; assay: as above; settings: exposure time: 5 days
Outline: as §1

Test System | surviving fraction (LAPATINIB; 0.5 nM) | surviving fraction (LAPATINIB; 1 nM) | surviving fraction (LAPATINIB; 5 nM) | surviving fraction (LAPATINIB; 10 nM) | surviving fraction (LAPATINIB; 50 nM) | surviving fraction (LAPATINIB; 100 nM) | surviving fraction (LAPATINIB; 500 nM) | surviving fraction (LAPATINIB; 1000 nM) | surviving fraction (DECITABINE; 0.5 nM) | surviving fraction (DECITABINE; 1 nM) | surviving fraction (DECITABINE; 5 nM) | surviving fraction (DECITABINE; 10 nM) | surviving fraction (DECITABINE; 50 nM) | surviving fraction (DECITABINE; 100 nM) | surviving fraction (DECITABINE; 500 nM) | surviving fraction (DECITABINE; 1000 nM)
SUM149 BREAST | 0.945 ± 0.078 | 0.988 ± 0.11 | 0.943 ± 0.043 | 0.889 ± 0.12 | 0.741 ± 0.046 | 0.656 ± 0.019 | 0.492 ± 0.018 | 0.424 ± 0.047 | 1.11 ± 0.11 | 1.03 ± 0.13 | 0.845 ± 0.047 | 0.807 ± 0.09 | 0.366 ± 0.0027 | 0.359 ± 0.022 | 0.261 ± 0.0076 | 0.245 ± 0.012
SUM149.B1*.S BREAST | 1.08 ± 0.049 | 1.23 ± 0.033 | 1.12 ± 0.023 | 1.11 ± 0.026 | 0.995 ± 0.06 | 1.07 ± 0.057 | 1.09 ± 0.035 | 1.05 ± 0.038 | 1.09 ± 0.037 | 1.03 ± 0.044 | 1.05 ± 0.06 | 0.98 ± 0.058 | 0.749 ± 0.062 | 0.66 ± 0.062 | 0.553 ± 0.043 | 0.496 ± 0.061
SUM159 BREAST | 1.08 ± 0.022 | 1.13 ± 0.018 | 1.1 ± 0.037 | 1.07 ± 0.014 | 1.06 ± 0.029 | 1.1 ± 0.036 | 1.043 ± 0.01 | 1.03 ± 0.013 | 1.1 ± 0.024 | 1.079 ± 0.0093 | 1.09 ± 0.023 | 1.06 ± 0.017 | 1.05 ± 0.012 | 1.028 ± 0.004 | 1.03 ± 0.015 | 0.9957 ± 0.0076
SYO1 SYNOVIAL | 0.992 ± 0.026 | 1.03 ± 0.08 | 0.976 ± 0.034 | 1.04 ± 0.041 | 0.938 ± 0.033 | 0.976 ± 0.032 | 0.966 ± 0.026 | 0.975 ± 0.021 | 0.991 ± 0.024 | 0.998 ± 0.021 | 0.933 ± 0.021 | 0.917 ± 0.022 | 0.663 ± 0.015 | 0.629 ± 0.013 | 0.439 ± 0.02 | 0.383 ± 0.0062
T47D BREAST | 1.01 ± 0.068 | 1.07 ± 0.036 | 1.08 ± 0.072 | 1.07 ± 0.05 | 1.01 ± 0.019 | 1.04 ± 0.05 | 1 ± 0.041 | 1.01 ± 0.017 | 1.03 ± 0.049 | 1.06 ± 0.035 | 1.05 ± 0.029 | 1.04 ± 0.028 | 1.12 ± 0.049 | 1.08 ± 0.024 | 1.04 ± 0.049 | 1.06 ± 0.057
U2OS BONE | 1.03 ± 0.031 | 1.034 ± 0.0044 | 1.08 ± 0.014 | 1.08 ± 0.027 | 1.03 ± 0.012 | 1.04 ± 0.024 | 0.9533 ± 0.0085 | 0.938 ± 0.037 | 1.02 ± 0.043 | 1.01 ± 0.052 | 1.04 ± 0.054 | 1.01 ± 0.021 | 0.992 ± 0.029 | 0.902 ± 0.045 | 0.679 ± 0.055 | 0.699 ± 0.013
VCAP PROSTATE | 0.835 ± 0.089 | 0.828 ± 0.047 | 0.889 ± 0.21 | 1.15 ± 0.049 | 0.957 ± 0.07 | 0.901 ± 0.1 | 0.839 ± 0.035 | 0.956 ± 0.073 | 1.11 ± 0.099 | 1.17 ± 0.031 | 1.25 ± 0.14 | 1.18 ± 0.095 | 1.09 ± 0.035 | 1.09 ± 0.11 | 1.01 ± 0.094 | 0.875 ± 0.062
VP229 BREAST | 1.23 ± 0.14 | 1.21 ± 0.039 | 1.21 ± 0.15 | – | 1.04 ± 0.11 | 0.92 ± 0.058 | 0.626 ± 0.019 | 0.436 ± 0.087 | 1.09 ± 0.062 | 1.13 ± 0.093 | 0.996 ± 0.13 | 0.952 ± 0.11 | 0.966 ± 0.067 | 0.959 ± 0.028 | 0.871 ± 0.056 | 0.798 ± 0.097
YAMATO SYNOVIAL | 1.22 ± 0.066 | 1.31 ± 0.15 | 1.23 ± 0.12 | 1.24 ± 0.077 | 1.25 ± 0.16 | 1.31 ± 0.022 | 1.21 ± 0.16 | 1.13 ± 0.045 | 1.26 ± 0.05 | 1.11 ± 0.081 | 1.17 ± 0.086 | 0.995 ± 0.098 | 1.02 ± 0.081 | 1.04 ± 0.034 | 0.907 ± 0.034 | 0.811 ± 0.035
ZR751 BREAST | 0.879 ± 0.09 | 0.898 ± 0.17 | 1.01 ± 0.08 | 1.1 ± 0.23 | 0.816 ± 0.069 | 0.785 ± 0.031 | 0.662 ± 0.038 | 0.746 ± 0.062 | 1.21 ± 0.096 | 1.2 ± 0.073 | 1.22 ± 0.11 | 1.05 ± 0.16 | 0.988 ± 0.12 | 1.13 ± 0.12 | 0.865 ± 0.012 | 0.866 ± 0.059
